How the values were obtained:
Beta-secretase 1 = Beta-secretase 1 (Homo sapiens, UniProt P56817); test: Inhibition of BACE1 (unknown origin) using Rh-EVNNLDAEFK fluorogenic peptide as substrate incubated for 3 hrs by FRET assay
[1] = molecular target: Amyloid-beta precursor protein (Homo sapiens, UniProt P05067); test: Inhibition of self-induced aggregation amyloid beta (1 to 40) (unknown origin) incubated for 24 hrs by Thioflavin T based fluorometric assay
Amyloid-beta precursor protein, sequence (P05067 whole entry): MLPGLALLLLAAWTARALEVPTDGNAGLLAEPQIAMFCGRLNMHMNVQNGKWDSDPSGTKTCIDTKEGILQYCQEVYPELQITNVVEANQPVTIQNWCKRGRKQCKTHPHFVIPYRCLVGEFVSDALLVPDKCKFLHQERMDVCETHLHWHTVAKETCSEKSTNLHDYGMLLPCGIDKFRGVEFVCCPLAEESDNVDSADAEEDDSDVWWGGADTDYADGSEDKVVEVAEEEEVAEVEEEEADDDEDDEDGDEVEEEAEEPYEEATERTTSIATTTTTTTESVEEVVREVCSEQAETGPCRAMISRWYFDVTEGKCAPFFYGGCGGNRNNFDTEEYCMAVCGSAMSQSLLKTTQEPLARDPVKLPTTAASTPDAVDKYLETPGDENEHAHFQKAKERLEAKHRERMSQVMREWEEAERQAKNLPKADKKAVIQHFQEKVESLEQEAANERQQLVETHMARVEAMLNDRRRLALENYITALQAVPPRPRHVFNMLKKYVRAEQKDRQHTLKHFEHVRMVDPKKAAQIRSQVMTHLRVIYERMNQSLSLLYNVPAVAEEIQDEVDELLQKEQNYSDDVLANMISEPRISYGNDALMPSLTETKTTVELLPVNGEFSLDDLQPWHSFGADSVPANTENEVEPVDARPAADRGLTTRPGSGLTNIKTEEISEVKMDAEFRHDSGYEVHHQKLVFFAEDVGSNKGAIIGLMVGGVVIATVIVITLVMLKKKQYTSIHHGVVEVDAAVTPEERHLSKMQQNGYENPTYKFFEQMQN

Beta-secretase 1, sequence (P56817 whole entry): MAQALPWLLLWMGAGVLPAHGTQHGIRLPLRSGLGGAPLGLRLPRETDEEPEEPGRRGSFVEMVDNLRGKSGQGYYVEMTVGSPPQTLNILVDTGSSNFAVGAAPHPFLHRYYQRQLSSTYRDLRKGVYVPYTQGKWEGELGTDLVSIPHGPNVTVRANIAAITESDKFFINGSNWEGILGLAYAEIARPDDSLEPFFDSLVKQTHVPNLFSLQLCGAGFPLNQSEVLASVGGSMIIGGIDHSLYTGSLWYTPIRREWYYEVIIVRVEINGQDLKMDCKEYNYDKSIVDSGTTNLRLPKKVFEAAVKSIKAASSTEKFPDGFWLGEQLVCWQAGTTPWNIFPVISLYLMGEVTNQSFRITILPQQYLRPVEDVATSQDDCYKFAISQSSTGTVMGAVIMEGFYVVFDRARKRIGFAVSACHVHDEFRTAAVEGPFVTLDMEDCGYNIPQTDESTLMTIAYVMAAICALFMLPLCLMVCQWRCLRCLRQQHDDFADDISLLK

Structure (SMILES)	IC50 (Beta-secretase 1)	IC50 [1]
C/C(=C\Cc1c(O)cc(C)c(C(=O)O)c1O)CCCC1=C/C(=C\C(C)(C)O)OC1=O	10.5 µM	51.4 µM
COC(=O)c1c(C)cc(O)c(C/C=C(\C)CCCC2=C/C(=C\C(C)(C)O)OC2=O)c1O	10.9 µM	40.7 µM
C/C(=C\Cc1c(O)cc(C)c(C(=O)O)c1O)CC/C=C(\C)CC[C@H](O)C(C)(C)O	34.4 µM	53.3 µM

Results, then the compound that gave them:

IC50 (Beta-secretase 1)	IC50 [1]	Structure (SMILES)
1.6 µM	6.6 µM	COc1c(O)c(O)c(C(=O)O)c(C)c1C/C=C(\C)CC/C=C(\C)CCC=C(C)C
> 100 µM	50.3 µM	COC(=O)c1c(C)c(C/C=C(\C)CC/C=C(\C)CCC=C(C)C)c(OC)c(O)c1O
1.4 µM	–	CC(C)=CCC/C(C)=C/CC/C(C)=C/Cc1c(O)cc(C)c(C(=O)O)c1O [GRIFOLIC ACID]
6.1 µM	–	CC(C)=CCC/C(C)=C/CC/C(C)=C/Cc1c(O)cc(C)cc1O [GRIFOLIN]
